Data from patent publication EP4793292A1, “POLYPEPTIDE DERIVATIVE, PHARMACEUTICAL COMPOSITION THEREOF AND USE THEREOF” (Biocells (Beijing) Biotech Co., Ltd., priority 2023, dated 2025).
Starred links: 1 amine or outer side, 2 acyl side, 3 side chain; linkers in the order of their positions; H or OH if unused. Positions of bridges follow the written chain, without caps; N, C: chain ends. Non-standard residues stand in square brackets, D forms with d. Residues, ends and D or L forms follow the SMILES beside them. Groups on a side chain read outwards from the residue. No end group written: not given here. *: point of attachment. C18 diacid = O=C(O)CCCCCCCCCCCCCCCCC(=O)*; γGlu = O=C(O)[C@H](CCC(=O)[*:2])N[*:1]; AEEA = NCCOCCOCC(=O)O

What follows are compounds tested on SH-SY5Y cells (assay: Axonal growth of RA-differentiated SH-SY5Y cells on proteoglycan (ACAN) coating). Settings: PW polypeptide 2.5 µM, 72 h, proteoglycan (ACAN)-coated plate, FIG. 1.
Assay type: cell-based, human
Procedure: Therefore, RA-induced differentiated SH-SY5Y can be used to simulate neuronal axonal growth in vitro and to test the effects of PW polypeptides on axonal growth.
Preparation of culture medium for SH-SY5Y: 1) DMEM/F12 + 10% FBS + 1 × penicillin-streptomycin + 1 mM sodium pyruvate; 2) DMEM/F12 + 1% FBS + 1 × penicillin-streptomycin + 1 mM sodium pyruvate. Preparation of 50 mM retinoic acid stock solution: 15.02 mg of retinoic acid was weighed and dissolved in 1 mL of dimethyl sulfoxide (DMSO), aliquoted, and frozen at -80°C. Proteoglycan (ACAN/CSPG1) is a type of chondroitin sulfate proteoglycan (CSPG). Preparation of 1 mg/mL proteoglycan stock solution: 1 mg of ACAN solid was dissolved in 1 mL of distilled water, aliquoted, and frozen at -80°C. Preparation of PW polypeptide solution for cells (1 mM): the corresponding mass of polypeptide powder was weighed, dissolved in PBS and filtered through a 0.2 µm filter membrane, aliquoted, and frozen at -20°C.
The 1 mg/mL proteoglycan was diluted to 250 µg/mL with distilled water to coat a 24-well cell culture plate: each well was coated with 3 droplets of ACAN, 2 µL per droplet. Using the culture medium containing 10% FBS, SH-SY5Y cells were seeded in the proteoglycan-coated 24-well plate (20,000 cells/well) and incubated (37°C, 5% CO2) for 20 h. The medium was replaced with a culture medium containing 1% FBS, and PW polypeptide (2.5 µM) or an equal volume of PBS solution was added. After incubation for 72 h, the cells were fixed with 4% paraformaldehyde (room temperature, 30 min), and cell morphology was photographed and recorded using a 10× optical microscope. 20-30 cells were randomly selected under each field of view, and axonal length was measured using Image J-SNT.
Data analysis: All measured axonal lengths within each proteoglycan-coated range were averaged to serve as one data point. One-way analysis of variance and Tukey's test were used to compare the differences between groups. P<0.05 was considered as a significant difference.

With `CC[C@H](C)[C@H](NC(=O)[C@H](CO)NC(=O)[C@H](CCC(=O)O)NC(=O)[C@H](Cc1ccc(O)cc1)NC(=O)[C@@H]1CCC(=O)NCCCC[C@H](NC(=O)[C@H](CC(C)C)NC(=O)[C@H](CO)NC(=O)[C@H](CC(=O)O)NC(=O)[C@H](CC(N)=O)NC(=O)[C@H](C)NC(=O)[C@H](CCCCN)NC(=O)[C@H](CC(C)C)NC(=O)[C@H](CCCNC(=N)N)NC(=O)[C@H](CCC(=O)O)NC(=O)[C@@H](NC(=O)[C@H](Cc2c[nH]cn2)NC(=O)[C@H](CCC(=O)O)NC(=O)[C@H](C)NC(=O)[C@H](CCSC)NC(=O)[C@H](CC(=O)O)NC(=O)[C@H](CS)NC(=O)[C@H](CCCNC(=N)N)NC(=O)[C@H](CCCNC(=N)N)NC(=O)[C@H](CCCNC(=N)N)NC(=O)[C@H](CCC(N)=O)NC(=O)[C@H](CCCNC(=N)N)NC(=O)[C@H](CCCNC(=N)N)NC(=O)[C@H](CCCCN)NC(=O)[C@H](CCCCN)NC(=O)[C@H](CCCNC(=N)N)NC(=O)CN)[C@@H](C)O)C(=O)N[C@@H](CC(C)C)C(=O)N[C@@H](CO)C(=O)N[C@@H](CCC(N)=O)C(=O)N1)C(N)=O` [PW-170] (H-GRKKRRQRRRCDMAEHTERLKANDSLKLSQEYESI-NH2; lactam 27-31) as the compound, how does the “effect of promoting axonal growth compared with the scrambled polypeptide (Scr, negative control)” value read?
Its value is “significant effect of promoting axonal growth”.

What about the “promoting effect on axonal growth compared with PW6” value of the same compound?
Its value is “no significant difference”.

How did the “effect of promoting axonal growth compared with the scrambled polypeptide (Scr, negative control)” value turn out when “NH2-GrKKRrQrRR-C-DMAEHTEALKANDSLcyclo(KLSQEYE)SI-NH2 [PW-239]” was run?
The value was “significant effect of promoting axonal growth”.

And the “promoting effect on axonal growth compared with PW6” value?
Its value is “not significantly enhanced”.

For “PW-92: polypeptide derivative, SEQ ID NO: 10 (G[dR]KKR[dR]QRRRCDMAEHTERLK([AEEA-AEEA-γGlu-C18 diacid])ANDSLKLSQEYESI-NH2; not fully specified (residue 8))”, which “effect of promoting axonal growth compared with the scrambled polypeptide (Scr, negative control)” value is on record?
Its value is “significant effect of promoting axonal growth”.

And the “promoting effect on axonal growth compared with PW6” value?
The value was “no significant difference”.

How did the “promoting effect on axonal growth compared with PW6” value turn out when “PW-95: polypeptide derivative, SEQ ID NO: 12 (GRKKRRQRRRCDMAEHTERLKAKDSLKLSQEYESI; not fully specified; MOD_RES 35: note = I at position 35 is amidated; LIPID 23: note = Lys side-chain linked to 2-(2-(2-amino ethoxy) ethoxy) acetic acid-2-(2-(2-amino ethoxy) ethoxy)acetic acid-gamma Glutamic acid-Octadecanedioic acid; SITE 6: note = D-arginine; SITE 2: note = D-arginine; SITE 8: n)” was run?
The value was “not significantly enhanced”.

Which “promoting effect on axonal growth compared with PW6” value does the source give for “PW-96: polypeptide derivative, SEQ ID NO: 13 (GRKKRRQRRRDMAEHTERLKAKDSLKLSQEYESI; not fully specified; MOD_RES 34: note = I at position 34 is amidated; LIPID 22: note = Lys side-chain linked to 2-(2-(2-amino ethoxy) ethoxy) acetic acid-2-(2-(2-amino ethoxy) ethoxy)acetic acid-gamma Glutamic acid-Octadecanedioic acid; SITE 6: note = D-arginine; SITE 2: note = D-arginine; SITE 8: n)” here?
Its value is “not significantly enhanced”.
